Assay results as given in US11986507B1, “Micronutrient composition to improve men's health” (priority 2023, dated 2024).

Key:
Assay type in all cases: cell-based
Mouse Leyden TM3 cells [1] = assay: Testosterone production assay in TM3 cells, normal conditions (testosterone ELISA)
Method: (§1) Testosterone production assay: Mouse Leyden TM3 cells (ATCC) were cultured at 37° C., 5% CO2, in growth medium: 1:1 mixture of Ham's F12 medium and Dulbecco's modified Eagle's medium with 2.5 mM L-Glutamine, 0.5 mM Sodium Pyruvate, 1.2 g/L Sodium Bicarbonate and 15 mM HEPES, 92.5%; horse serum, 5%; fetal bovine serum, 2.5%. TM3 cells were seeded in 96-well plates covered with fibronectin or collagen (COSTAR) in […] growth medium. After reaching confluency cells were supplied with tested components in 100 mcl growth medium for 48 hour incubation. In some tests we also used additions of TNF alpha at 1 ng/ml and 10 ng/ml as indicated in appropriate figure legends. Testosterone content in 50 mcl conditioned cell culture medium samples was assayed with testosterone ELISA assay (DRG #EIA-1559) as described in the manufacturer's protocol.
The concentration of ingredients were Rosemary extract 20 mcg/ml, Fenugreek-20 mcg/ml, Cassia nomane—20 mcg/ml, 3′3-di indolylmethylene—5 mcg/ml, Zinc—2 mcg/ml, Phosphatidylserine—20 mcg/ml, Vitamin D—5 mcg/ml, Niacin—20 mcg/ml, Theanine—2 mcg/ml, Aspartic acid—2 mcg/ml, Arginine—2 mcg/ml and DHEA—2 mcg/ml.

Mouse Leyden TM3 cells [2] = assay: Testosterone production assay in TM3 cells under pro-inflammatory conditions (TNF alpha); settings: 10 ng/ml TNFa; for effect on testosterone secretion (in words): 48 h, in the presence and absence of DHEA (FIG. 3)
Method: as §1
It is known that chronic inflammation, such as in the presence of TNF alpha, can suppress testosterone production, which has physiological implications as it is related to an increased risk of infertility. Incubation was for 48 h with 10 ng/ml TNFa (all samples) and 1 mcg/ml DHEA or w/o DHEA. Data are presented as % of no additions Control. We evaluated the effects of micronutrients on testosterone production in Leydig cells exposed to a proinflammatory factor—TNF alpha.

[3] = test system: IL6 release by Human Aortic Endothelial Cells (HAEC); assay: IL6 secretion by human aortic endothelial cells (HAEC) in the presence of LPS (ELISA); settings: 24 h, 20 ng/ml LPS, with 200 mcM Ascorbate or w/o Ascorbate (FIG. 13)
Method: Cytokine assay in Human Aortic endothelial cells (AoEC): Human Aortic endothelial cells (AoEC, Lonza) were cultured in EBG-2 cell culture medium (Lonza) and used in experiments at 5-8 passages. AoEC were seeded in 96-well plates covered with fibronectin or collagen (COSTAR) in 100 mcl/well growth medium. After reaching confluency cells were supplemented with tested components in 100 mcl growth medium for 48 hour incubation. Levels of cytokines were assayed with corresponding ELISA assays (R&D Systems).
The test was carried out by incubating HAEC cells for 24 h in the presence of 20 ng/ml LPS (all samples) and 200 mcM Ascorbate or w/o Ascorbate.

[4] = test system: Human aortic smooth muscle cells (AoSMC); assay: Collagen gel contraction by AoSMC; settings: individual components (FIG. 6)
Method: Collagen gel contraction by AoSMC: Gel Contraction Assay: Human aortic smooth muscle cells (AoSMS) were obtained from Lonza Corporation and cultured in DMEM cell culture medium (ATCC) supplemented with 5% fetal bovine serum (ATCC). For experiments cells were suspended in DMEM medium at 500,000 per mL by trypsinization and mixed with equal volume of 2 mg/ml bovine skin collagen (Sigma) solution in DMEM. Resulting cell suspension was distributed at 300 mcl per well of plastic 24 well plate pretreated with 10 mg/ml bovine serum albumin in phosphate buffered saline. Collagen gels, formed in the wells after one hour incubation at 37° C., were supplemented with 500 mcl DMEM containing indicated amounts of tested compounds. After 24 hours incubation at 37° C. pictures of the wells were taken with digital photo camera and gel surface area was measured in pixels using ImageJ scientific software. Gel contraction was expressed as percentage of unsupplemented control using the following formula: (No Cell Control Gel Area−Tested Sample Gel Area)/(No Cell Control Gel Area−Not Supplemented Control Gel Area)*100%. All experiments were done in triplicates and results are expressed as mean values+/−SD.

| Compound | testosterone secretion, % of Control (Mouse Leyden TM3 cells [1]; 11 mcg/ml (FIG. 2)) | effect of individual compounds on IL-6 secretion (in words) [3] | effect on testosterone secretion (in words) (Mouse Leyden TM3 cells [2]) | other results |
| --- | --- | --- | --- | --- |
| C[C@]12CC[C@H](O)CC1=CC[C@@H]1[C@@H]2CC[C@]2(C)C(=O)CC[C@@H]12 [DHEA, Dehydroepiandrosterone] | 1402 % of Control | – | – | increase of testosterone secretion compared to control (Mouse Leyden TM3 cells [1]; 11 mcg/ml (FIG. 2)): 1402%; increase of testosterone secretion compared to control (Mouse Leyden TM3 cells [1]; 33 mcg/ml (FIG. 2)): 2361%; increase of testosterone secretion compared to control (Mouse Leyden TM3 cells [1]; applied individually, DHEA 2 mcg/ml (FIG. 1)): 161%; decrease of testosterone secretion compared to normal Control (Mouse Leyden TM3 cells [2]; 1 mcg/ml DHEA, 48 h (FIG. 3)): about 48% |
| C=C1CC[C@H](O)C/C1=C/C=C1\CCC[C@]2(C)[C@@H]([C@H](C)CCCC(C)C)CC[C@@H]12 [Vitamin D, Cholecalciferol] | 115 % of Control | significant inhibitory effect | – | – |
| Oc1ccc(C=Cc2cc(O)cc(O)c2)cc1 [resveratrol] | – | – | decreasing | – |
| CC(=O)[O-].CC(=O)[O-].[Zn+2] [zinc, Zinc Acetate Dihydrate] | – | – | decreasing | SMC relaxation by individual compounds [4]: 69% |
| Phosphatidylserine | – | significant inhibitory effect | – | – |
